Earlier results, collected in US12102684B2, “Methods of making and using polyphenols complexed with a protein, peptide, amino acid, polysaccharide, disaccharide, or monosaccharide” (priority 2016, dated 2024).

Tests used:
[1] = previous studies

| solubility in organic solvents (organic solvents (methanol, acetone, DMSO, etc.)) | solubility in water | oral clearance [1] [L/h/kg] | SMILES |
| --- | --- | --- | --- |
| 16-50 grams/liter | 0.03 grams/liter |  | Oc1ccc(/C=C/c2cc(O)cc(O)c2)cc1 [Resveratrol, 3,5,4′-trihydroxy-trans-stilbene] |
|  | very poor | 108.5 | COc1cc(/C=C/C(=O)CC(=O)/C=C/c2ccc(O)c(OC)c2)ccc1O [curcumin, (1E,6E)-1,7-bis(4hydroxy-3-methoxyphenyl)hepta-1,6-diene-3,5-dione] |

| SMILES | solubility in organic solvents (organic solvents (methanol, acetone, DMSO, etc.)) | solubility in water | oral clearance [1] [L/h/kg] |
| --- | --- | --- | --- |
| COc1cc([C@@H]2Oc3c(O)cc([C@H]4Oc5cc(O)cc(O)c5C(=O)[C@@H]4O)cc3[C@H]2CO)ccc1O [Silychristin] |  | water insoluble |  |
